Laboratory results reported in US6485754B1, “Bone cement paste containing an antibiotic” (Merck Patent GmbH, priority 1997, dated 2002).

Assay: Elution of antibiotics from cured α-BSM cement ball into phosphate buffer
Assay type: physicochemical
Details: other material used as carrier instead of the hydroxyapatite-like cement pastes
Protocol: 1 g of cement powder (α-BSM, WO 96/36562) and 0.7 ml of water in which 42 mg of gentamycin sulfate have been dissolved are mixed with one another. A paste is obtained by this means, which is shaped to give a ball of about 1 cm diameter. This ball is added at 37° C. to 20 ml of phosphate buffer according to Sörensen (pH 7.4). After approximately 10 minutes, the cement ball cures. At defined times, samples are taken from the buffer solution and the concentration of the antibiotic is determined microbiologically or chromatographically according to standard methods. The determined antibiotic concentrations in μg/ml correspond to the concentrations released in the buffer.
Analogously to Example 1, a previously cured ball of agar/gentamycin sulfate is eluted and the corresponding concentrations are measured.
Analogously to Example 1, an α-BSM/cefazolin ball is eluted and the corresponding concentrations are measured.
Analogously to Example 1, an α-BSM/netilmycin sulfate ball is eluted and the corresponding concentrations are measured.

Substance: gentamycin sulfate
- release characteristics of the antibiotic (in words): released just as rapidly
